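Following 48 hours of exposure in 96-well plates, responses at five concentrations were used to interpolate endpoints linearly. Abbreviation: GI50, concentration required for 50% inhibition of growth.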 Active and inactive are the calls of the source. Rule as the data show it: active = GI50 up to about 1.1 µM and inactive = higher.
What was measured:
Test in all cases: DTP human tumour cell line panel, 48 h
A549 = test system: A549
DMS-273 = test system: DMS-273
EKVX = test system: EKVX
HCC 2998 = test system: HCC 2998
HT-29 = test system: HT-29
IGROV-1 = test system: IGROV-1
MOLT-4 = test system: MOLT-4
NCI-H460 = test system: NCI-H460
SF-539 = test system: SF-539
SK-MEL-2 = test system: SK-MEL-2
SK-OV-3 = test system: SK-OV-3
SN12C = test system: SN12C
SR = test system: SR
UACC-62 = test system: UACC-62
CCRF-CEM = test system: CCRF-CEM
HL-60 = test system: HL-60
HOP-92 = test system: HOP-92
LOX IMVI = test system: LOX IMVI
SNB-78 = test system: SNB-78
MDA-MB-231 = test system: MDA-MB-231

Measured: GI50

CCOC(=O)c1cc(OC(=O)CC)c2c(OC)ccc(OC)c2c1
inactive: A549 > 100 µM | DMS-273 35.5 µM | EKVX 35.8 µM | HCC 2998 > 100 µM | HT-29 > 10 µM | IGROV-1 > 100 µM | MOLT-4 43.7 µM | NCI-H460 > 100 µM | SF-539 47.2 µM | SK-MEL-2 > 100 µM | SK-OV-3 21.9 µM | SN12C 78.2 µM | SR 18.7 µM | UACC-62 28.8 µM

CN1N=CSC12C(=O)N(c1ccc(Cl)cc1)C(=O)N2c1ccc(Cl)cc1 (stereo unspecified)
inactive: A549 3.46 µM | CCRF-CEM 3.37 µM | EKVX 7.14 µM | HCC 2998 3.33 µM | HL-60 2.13 µM | HOP-92 3.15 µM | HT-29 3.4 µM | IGROV-1 5.05 µM | LOX IMVI 3.21 µM | MOLT-4 2.67 µM | NCI-H460 3.27 µM | SF-539 5.82 µM | SK-OV-3 3.95 µM | SN12C 3.44 µM | SNB-78 3.98 µM | SR 2.75 µM | UACC-62 3.36 µM

N=C(N)Nc1nc2cc(N)ccc2o1
inactive: A549 > 100 µM | CCRF-CEM > 100 µM | EKVX > 100 µM | HCC 2998 > 100 µM | HL-60 > 100 µM | HOP-92 > 100 µM | HT-29 > 100 µM | LOX IMVI > 100 µM | MOLT-4 > 100 µM | NCI-H460 > 100 µM | SF-539 > 100 µM | SK-MEL-2 > 100 µM | SK-OV-3 > 100 µM | SN12C > 100 µM | SNB-78 > 100 µM | SR > 100 µM | UACC-62 > 100 µM

O=C1N(Cl)C(=O)C(c2ccc(Cl)cc2)(c2ccc(Cl)cc2)N1Cl
inactive: A549 58.6 µM | CCRF-CEM 22.6 µM | DMS-273 > 100 µM | EKVX > 100 µM | HCC 2998 > 100 µM | HL-60 26.1 µM | HOP-92 > 100 µM | HT-29 78.9 µM | IGROV-1 > 100 µM | MOLT-4 56.8 µM | NCI-H460 52.2 µM | SF-539 > 100 µM | SK-MEL-2 > 100 µM | SK-OV-3 > 100 µM | SN12C 96.8 µM | SR 39.4 µM

COc1ccc(/C(=N/Nc2ccccc2)C(c2ccc(OC)cc2)C2OC(=O)c3ccccc32)cc1 (stereo unspecified)
inactive: A549 99.3 µM | CCRF-CEM 79.8 µM | DMS-273 > 100 µM | EKVX 37.8 µM | HCC 2998 > 100 µM | HT-29 90.6 µM | IGROV-1 83.9 µM | MOLT-4 25.6 µM | NCI-H460 95.7 µM | SF-539 > 100 µM | SK-MEL-2 > 100 µM | SN12C > 100 µM | UACC-62 52.7 µM

NC1=NS(=O)(=O)Nc2nc(-c3cccs3)[nH]c21
inactive: A549 > 100 µM | CCRF-CEM > 100 µM | DMS-273 > 100 µM | HCC 2998 > 100 µM | HL-60 > 100 µM | HOP-92 > 100 µM | HT-29 > 100 µM | IGROV-1 > 100 µM | LOX IMVI > 100 µM | MOLT-4 > 100 µM | NCI-H460 > 100 µM | SF-539 > 100 µM | SK-MEL-2 > 100 µM | SK-OV-3 > 100 µM | SN12C > 100 µM | SR > 100 µM | UACC-62 > 100 µM

O=C(C#Cc1ccccc1)NC/C=C/c1ccccc1
inactive: A549 36 µM | CCRF-CEM 36.8 µM | EKVX > 100 µM | HCC 2998 35.2 µM | HL-60 24.1 µM | HOP-92 25.4 µM | HT-29 50.2 µM | IGROV-1 55.8 µM | LOX IMVI 38.5 µM | MOLT-4 33.6 µM | NCI-H460 47.9 µM | SF-539 33.3 µM | SK-MEL-2 35.5 µM | SK-OV-3 22.2 µM | SN12C 49.9 µM | SNB-78 29.9 µM | SR 35.6 µM | UACC-62 33.6 µM

CCc1ccccc1NC(=O)C(=O)C(C#N)c1ccccc1Cl (stereo unspecified)
inactive: A549 > 100 µM | CCRF-CEM > 100 µM | EKVX > 100 µM | HCC 2998 > 100 µM | HL-60 > 100 µM | HOP-92 > 100 µM | HT-29 > 100 µM | IGROV-1 > 100 µM | LOX IMVI 3.36 µM | MOLT-4 > 100 µM | NCI-H460 16.9 µM | SK-MEL-2 > 100 µM | SN12C > 100 µM | SNB-78 > 100 µM | UACC-62 > 100 µM

COC(=O)C1(C)CCCC2(C)c3cc(OC)ccc3C(=O)C(Br)C12 (stereo unspecified)
inactive: A549 > 10 µM | CCRF-CEM 2.29 µM | EKVX > 10 µM | HCC 2998 > 10 µM | HL-60 2.14 µM | HOP-92 > 10 µM | HT-29 4.75 µM | IGROV-1 > 10 µM | LOX IMVI > 10 µM | MDA-MB-231 3.35 µM | MOLT-4 1.75 µM | NCI-H460 > 10 µM | SF-539 > 10 µM | SK-MEL-2 > 10 µM | SK-OV-3 > 10 µM | SN12C 8.61 µM | SR 2.76 µM | UACC-62 > 10 µM

CCOc1ccc(NC(=O)C(=O)C(C(=O)c2ccc3ccccc3c2)C2OC(=O)c3ccccc32)cc1 (stereo unspecified)
inactive: A549 20.2 µM | CCRF-CEM 7.08 µM | DMS-273 7.35 µM | EKVX > 100 µM | HCC 2998 11.2 µM | HOP-92 19.5 µM | HT-29 34.4 µM | IGROV-1 17.6 µM | LOX IMVI 15.7 µM | MOLT-4 4.57 µM | NCI-H460 5.09 µM | SF-539 7.31 µM | SK-MEL-2 15.5 µM | SK-OV-3 50.9 µM | SN12C 17.2 µM | SNB-78 4.91 µM | UACC-62 13.7 µM

CC1=C(O)C(=O)c2ccccc2C1=O
inactive: A549 > 100 µM | CCRF-CEM > 100 µM | EKVX > 100 µM | HCC 2998 > 100 µM | HL-60 6.82 µM | HOP-92 > 100 µM | HT-29 56.1 µM | IGROV-1 80.4 µM | LOX IMVI 70.6 µM | MDA-MB-231 > 100 µM | MOLT-4 > 100 µM | NCI-H460 43.6 µM | SF-539 > 100 µM | SK-MEL-2 > 100 µM | SK-OV-3 > 100 µM | SN12C > 100 µM | SR 88.5 µM | UACC-62 39.3 µM

COc1cccc2c1[C@]1(O)C(O)CCCC21 (stereo partly specified)
inactive: A549 > 100 µM | CCRF-CEM > 100 µM | DMS-273 > 100 µM | EKVX > 10 µM | HCC 2998 > 100 µM | HT-29 > 100 µM | IGROV-1 > 100 µM | LOX IMVI > 100 µM | MOLT-4 > 100 µM | NCI-H460 > 100 µM | SF-539 > 100 µM | SK-MEL-2 > 100 µM | SK-OV-3 > 100 µM | SN12C > 100 µM | SNB-78 > 100 µM | UACC-62 > 100 µM

— ChEMBL document CHEMBL1201862, “PubChem BioAssay data set” (2004)
